Laboratory results: publication PMC5861127, “3-pyridyl inhibitors with novel activity against Trypanosoma cruzi reveal in vitro profiles can aid prediction of putative cytochrome P450 inhibition” (Scientific Reports, 2018)
Values joined by “and” are separate entries in the source; they are usually repeats but may differ in a detail not shown here. Equal values may be shown once. Read-outs that look alike come from different tables or passages of the source.

Assays:
T. cruzi amastigotes [1] = test: T. cruzi image-based assay (48 hour, intracellular amastigotes in 3T3 host cells); type: cell-based, Trypanosoma cruzi; settings: for Emax: 48 h; for IC50: intracellular amastigotes in 3T3 cells, retested from DMSO stocks (CF from solid sample, temporal experiments)
Procedure: The assay was performed as previously described. […] One wash was undertaken by using a Multidrop plate dispenser and two washes with a Bravo liquid handling device (Agilent Technologies, USA). Five microlitres of compound were added to plates and incubated for 48 hours. Cells were then fixed and stained with Hoechst (Life Technologies, USA) and HCS CellMaskTM Green (Life Technologies, USA) and image acquisition was performed an OperaTM High Content Screening System (PerkinElmer, USA) at 20 times magnification. […] The maximum activity achievable (Emax) of compounds was determined by taking (or as close to, if concentrations in the Emax were limited) the percentage activity at the mid concentration within the plateau of activity in the concentration response curve (see Supplemental Fig. 1, example NFX). […] Final assay concentrations of compounds ranged from 4.03 μM to 4.03 × 10^-3 μM. […] This was only undertaken for the amastigote assay. Dilutions were prepared with a multichannel pipette ([…], Thermo Fisher Scientific, USA) in 384-well polypropylene plates (Corning, NY, USA). […] Compound IC50 values in the TcCYP51 in vitro assay were calculated in GraFit (Erithacus software) by non-linear slope analysis. All data are presented as mean ± standard deviation. The significance of % clearance of parasites at compound Emax concentrations was calculated in Prism 5.0, using an unpaired student's t-test.

3T3 host cells = test: 3T3 host cell activity in the T. cruzi image-based assay; design: species or system mouse; settings: for CC50: Mus musculus, NIH3T3, 48 hours, no activity up to top concentration, read-out: IC50 value against 3T3 cells used for SI; for SI to 3T3: ratio 3T3 host cell / parasite IC50, 48 hours
Procedure: To calculate compound activity, 12.0 µM NFX was used as a positive control and 0.366% DMSO was used as a negative control. To determine the activity against the host cell, 30.0 µM of puromycin was used as a positive control. The percentage normalised activity was determined using the equation outlined in our previous publication[19] and the reproducibility of the assay was determined using the Z’-factor[20].
The assay was performed as previously described. Briefly, 3T3 cells were seeded at a concentration of 1 × 10^3 cells in 50 µL per well into collagen I coated 384-well plates (PerkinElmer, USA). Following 24 hours incubation at 37 °C and 5% CO2, 10 µL of parasites were added to wells at a multiplicity of infection (MOI) of 5:1 (parasites: host cells) with a Multidrop™ dispenser (Thermo Fisher, USA). Following 24 hours incubation, wells were washed with PBS (containing Mg^2+ and Ca^2+) to remove uninfected parasites. One wash was undertaken by using a Multidrop plate dispenser and two washes with a Bravo liquid handling device (Agilent Technologies, USA). Five microlitres of compound were added to plates and incubated for 48 hours. Cells were then fixed and stained with Hoechst (Life Technologies, USA) and HCS CellMask™ Green (Life Technologies, USA) and image acquisition was performed an Opera™ High Content Screening System (PerkinElmer, USA) at 20 times magnification. The positive control was 12.0 µM NFX and the negative control was 0.366% DMSO.

recombinant TcCYP51 = recombinant TcCYP51 (Trypanosoma cruzi, UniProt Q7Z1V1); type: biochemical
recombinant TcCYP51, sequence (Q7Z1V1 whole entry): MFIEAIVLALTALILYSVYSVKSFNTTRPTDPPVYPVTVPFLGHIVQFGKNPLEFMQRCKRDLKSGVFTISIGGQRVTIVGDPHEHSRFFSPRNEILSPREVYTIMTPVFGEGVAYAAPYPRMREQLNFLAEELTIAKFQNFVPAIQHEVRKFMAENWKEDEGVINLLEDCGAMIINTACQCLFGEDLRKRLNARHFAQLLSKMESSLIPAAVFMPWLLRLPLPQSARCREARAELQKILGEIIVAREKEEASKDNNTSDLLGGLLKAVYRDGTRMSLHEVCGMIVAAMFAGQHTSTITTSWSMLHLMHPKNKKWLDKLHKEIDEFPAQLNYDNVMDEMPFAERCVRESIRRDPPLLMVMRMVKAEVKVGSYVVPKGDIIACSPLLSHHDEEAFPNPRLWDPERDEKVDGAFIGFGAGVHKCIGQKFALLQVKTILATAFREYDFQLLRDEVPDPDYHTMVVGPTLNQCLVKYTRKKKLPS
Procedure: The activity of compounds against TcCYP51 was determined at the University of Dundee as outlined previously. This assay utilises the fluorogenic probe benzyloxymethyloxycyanocoumarin (BOMCC), activated by TcCYP51. […] Preliminarily testing of MMV001239 was performed using this assay, with 1 replicate concentration response curve generated to establish whether it was a putative TcCYP51 inhibitor.
Compound IC50 values in the T. cruzi and HEK293 cell-based assays were determined using Prism 5.0 (GraphPad software), derived by a sigmoidal concentration response (variable slope) analysis. Compound IC50 values in the TcCYP51 in vitro assay were calculated in GraFit (Erithacus software) by non-linear slope analysis. All data are presented as mean ± standard deviation. The significance of % clearance of parasites at compound Emax concentrations was calculated in Prism 5.0, using an unpaired student’s t-test.

HEK293 cells = test: HEK293 assay (resazurin); type: cell-based, human; settings: 120 hours; HEK293 / epimastigote IC50; NA = SI cannot be determined, tested to 79.4 µM
Procedure: […] […] Plates were incubated for 24 hours before the addition of compounds. […] The positive control was 32.5 μM puromycin and the negative control was 0.433% DMSO, slightly different to the T. cruzi assay due to the change in volume, whilst utilising the same stock control plate. […] […] […] This was only undertaken for the amastigote assay. Dilutions were prepared with a multichannel pipette ([…], Thermo Fisher Scientific, USA) in 384-well polypropylene plates (Corning, NY, USA).

T. cruzi epimastigotes = test: 120 hour T. cruzi epimastigote assay (PrestoBlue); type: cell-based; settings: Trypanosoma cruzi
Procedure: Additions were made with a Multidrop dispenser and compounds were added directly following parasite addition. Plates were incubated for 112 hours before the addition 10 µL of PrestoBlue® viability reagent (Thermo Fisher, USA). […] The positive control was NFX at a final concentration of 14.20 µM and 0.433% DMSO as a negative control.

T. cruzi amastigotes [2] = test: 24 hour image-based assay; type: cell-based; settings: Trypanosoma cruzi; for Emax: plateau/Emax concentrations, read-out: % activity at the Emax, 24 hours incubation; for IC50: n of 2, read-out: IC50 value, 24 hours incubation
Procedure: Compounds were added to assay plates as described for the 48 hour assay, although incubation time was decreased to 24 hours. […] Two experimental replicates were performed.

T. cruzi amastigotes [3] = test: 96 hour image-based assay; type: cell-based, Trypanosoma cruzi; settings: for Emax: Trypanosoma cruzi
Procedure: The assay format was the same as the 48 hour assay, although plates were incubated for 96 hours. […] Two extra wash steps were included to remove as many extracellular parasites as possible to reduce impact on determination of intracellular parasites. […] Two experimental replicates were undertaken.

T. cruzi amastigotes [4] = test: Wash-off assay to assess parasite survival following compound removal; type: cell-based; settings: Trypanosoma cruzi, 48 hours incubation, additional 72 hours without compound, read-out: percentage activity at the Emax, wash-off assay
Procedure: The T. cruzi assay 48 hour assay was performed. Following, plates were washed 5 times with PBS (containing Mg^2+ and Ca^2+) on a Bravo liquid handler to remove compound pressure. Plates were incubated for an additional 72 hours and wells were washed 5 times before fluorescent labels were added. Plates were imaged on an Opera confocal-based high-content system with 7 fields per well acquired, at 20 times magnification. […] Four experimental replicates were undertaken.

[5] = Trypanosoma cruzi, DMSO stocks (CF from solid sample), relative to nifurtimox control, read-out: % activity (Emax)
[6] = Trypanosoma cruzi, NIH3T3, 48 h
[7] = DMSO stocks (CF from solid sample), relative to nifurtimox control
[8] = difference 96 hours minus 48 hours

Q: For `CCOc1ccc(NC(=O)N(Cc2ccc(C)cc2)Cc2cccnc2)cc1` [Compound 4, 3-(4-Ethoxyphenyl)-1-(4-methylbenzyl)-1-(3-pyridinylmethyl)urea], which Emax (T. cruzi amastigotes [1]; [5]) is on record?
A: 76 ± 1.41%

Q: What about the IC50 (T. cruzi amastigotes [1]; [6]) of the same compound?
A: 1400 ± 79.9 nM

Q: And the CC50 (3T3 host cells)?
A: > 18300 nM

Q: What about the “SI to 3T3” value (3T3 host cells) of the same compound?
A: >13.1

Q: For `CCOC(=O)C(=O)NCC(c1cccnc1)N1CCN(c2ccccc2)CC1` (centres unmarked) [Compound 2], which “% activity (Emax)” value (T. cruzi amastigotes [1]; [7]) is on record?
A: 76.5 ± 3.54%

Q: What about the IC50 (T. cruzi amastigotes [1]) of the same compound?
A: 2170 ± 499 nM

Q: And the “SI to 3T3” value (3T3 host cells)?
A: >8.43

Q: What about the IC50 (recombinant TcCYP51; BOMCC probe, read-out: IC50 value against recombinant TcCYP51) of the same compound?
A: 562 ± 130 nM

Q: Which results are given for `CC(=O)N1CCC(N(Cc2cccnc2)C(=O)Nc2ccc(Cl)cc2)CC1` [Compound 3, 1-(1-Acetyl-4-piperidinyl)-3-(4-chlorophenyl)-1-(3-pyridinylmethyl)urea]?
A: Emax (T. cruzi amastigotes [1]; [5]): 70.5 ± 0.707%; IC50 (T. cruzi amastigotes [1]; [6]): 1290 ± 368 nM; CC50 (3T3 host cells): > 18300 nM; SI to 3T3 (3T3 host cells): >14.2

Q: Which IC50 (T. cruzi amastigotes [1]; [6]) does the source give for `COc1ccc(C[C@H](N)C(=O)N[C@H]2[C@@H](O)[C@H](n3cnc4c(N(C)C)ncnc43)O[C@@H]2CO)cc1` [PURO, puromycin] here?
A: 2010 ± 329 nM

Q: What about the “SI to 3T3” value (3T3 host cells) of the same compound?
A: 1.36

Q: And the “SI to HEK293 cells” value (HEK293 cells)?
A: 0.386

Q: And the IC50 (T. cruzi epimastigotes)?
A: 566 ± 141 nM

Q: For `CC[C@@H]([C@H](C)O)n1ncn(-c2ccc(N3CCN(c4ccc(OC[C@@H]5CO[C@@](Cn6cncn6)(c6ccc(F)cc6F)C5)cc4)CC3)cc2)c1=O` [POSA, posaconazole], which Emax (T. cruzi amastigotes [1]; [5]) is on record?
A: 70 ± 8.49%

Q: And the Emax (T. cruzi amastigotes [1]; Trypanosoma cruzi, n of 4, read-out: percentage activity at the Emax, 48 hours incubation (temporal experiments, Fig. 3))?
A: 75.3%

Q: What about the CC50 (3T3 host cells) of the same compound?
A: 1000 nM

Q: And the Emax (T. cruzi amastigotes [2])?
A: < 50%

Q: What about the Emax (T. cruzi amastigotes [3]; 96 hours, n of 2, read-out: reduction in infected cells at the Emax, 96 hours exposure) of the same compound?
A: 96.5%

Q: What about the Emax (T. cruzi amastigotes [3]; difference 96 hours minus 48 hours, read-out: increase in activity at the Emax from 48 to 96 hours incubation) of the same compound?
A: 21.3%

Q: What about the Emax (T. cruzi amastigotes [4]) of the same compound?
A: 94%

Q: Which “% activity (Emax)” value (T. cruzi amastigotes [1]; [7]) does the source give for `O=C(Cn1ccnc1[N+](=O)[O-])NCc1ccccc1` [BZ, benznidazole] here?
A: 99.5 ± 2.12%

Q: And the Emax (T. cruzi amastigotes [1]; [5])?
A: 100%

Q: And the IC50 (T. cruzi amastigotes [1]; [6])?
A: 3560 ± 2340 nM

Q: And the CC50 (3T3 host cells)?
A: > 127000 nM

Q: And the “SI to 3T3” value (3T3 host cells)?
A: >35.7

Q: What about the “SI to HEK293 cells” value (HEK293 cells) of the same compound?
A: >26.1

Q: And the IC50 (T. cruzi amastigotes [2])?
A: 7560 ± 2370 nM

Q: What about the Emax (T. cruzi amastigotes [2]) of the same compound?
A: 100%

Q: And the “increase in activity at the Emax from 48 to 96 hours incubation” value (T. cruzi amastigotes [3]; [8])?
A: no difference

Q: And the Emax (T. cruzi amastigotes [4])?
A: 100%

Q: What about the IC50 (T. cruzi epimastigotes) of the same compound?
A: 5780 ± 477 nM

Q: `Cc1ccc(CN(Cc2cccnc2)C(=O)Nc2ccc(Cl)c(Cl)c2)cc1` [Compound 5, 3-(3,4-Dichlorophenyl)-1-(4-methylbenzyl)-1-(3-pyridinylmethyl)urea] was tested. Which Emax (T. cruzi amastigotes [1]; [5]) did it give?
A: 88 ± 9.9%

Q: What about the IC50 (T. cruzi amastigotes [1]; [6]) of the same compound?
A: 1800 ± 3.54 nM

Q: What about the IC50 (T. cruzi amastigotes [1]) of the same compound?
A: 1820 ± 3.54 nM

Q: And the CC50 (3T3 host cells)?
A: > 18300 nM

Q: And the “SI to 3T3” value (3T3 host cells)?
A: >10.0

Q: `CC1CS(=O)(=O)CCN1/N=C/c1ccc([N+](=O)[O-])o1` (centres unmarked) [NFX, nifurtimox] was tested. Which “% activity (Emax)” value (T. cruzi amastigotes [1]; [7]) did it give?
A: 102 ± 1.41%

Q: What about the Emax (T. cruzi amastigotes [1]; [5]) of the same compound?
A: 100%

Q: And the IC50 (T. cruzi amastigotes [1]; [6])?
A: 709 ± 161 nM

Q: What about the CC50 (3T3 host cells) of the same compound?
A: > 127000 nM

Q: What about the “SI to 3T3” value (3T3 host cells) of the same compound?
A: >179

Q: And the “SI to HEK293 cells” value (HEK293 cells)?
A: >136

Q: And the IC50 (T. cruzi amastigotes [2])?
A: 1200 ± 21.3 nM

Q: And the Emax (T. cruzi amastigotes [2])?
A: 100%

Q: And the “increase in activity at the Emax from 48 to 96 hours incubation” value (T. cruzi amastigotes [3]; [8])?
A: no difference

Q: What about the Emax (T. cruzi amastigotes [4]) of the same compound?
A: 100%

Q: What about the IC50 (T. cruzi epimastigotes) of the same compound?
A: 1110 ± 131 nM

Q: How did the Emax (T. cruzi amastigotes [1]; [5]) turn out when `CCc1ccc(NC(=O)N(Cc2cccnc2)Cc2ccccc2Cl)cc1` [Compound 1, 1-(2-Chlorobenzyl)-3-(4-ethylphenyl)-1-(3-pyridinylmethyl)urea] was run?
A: 84.5 ± 6.36%

Q: What about the IC50 (T. cruzi amastigotes [1]; [6]) of the same compound?
A: 3480 ± 622 nM

Q: And the CC50 (3T3 host cells)?
A: > 18300 nM

Q: What about the “SI to 3T3” value (3T3 host cells) of the same compound?
A: >5.26

Q: How did the “percentage activity at the Emax, 48 hours incubation (temporal experiments, Fig. 3)” value (T. cruzi amastigotes [1]; n of 4) turn out when `COc1ccc2sc(N(Cc3cccnc3)C(=O)c3ccc(C#N)cc3)nc2c1` [MMV001239] was run?
A: 85 ± 6.4% and 84.8%

Q: What about the IC50 (recombinant TcCYP51; single concentration response curve, read-out: IC50 value against recombinant TcCYP51, preliminary) of the same compound?
A: 46 nM
